The structures appear in SMILES notation. pIC50: −log10 of the molar value. A value given as a limit tells only on which side of the number the result lay.

The test system of assay [1] is U-937. The assay is described as follows: Antiinflammatory activity in PMA-stimulated human U-937 cells assessed as inhibition of IL-1beta protein expression at 1 ug/ml by western blot analysis. The format is functional. A general note: A western blot detects proteins with antibodies after separation by electrophoresis.
Assay [2] deals with U-937. Put plainly: Antiinflammatory activity in PMA-stimulated human U-937 cells assessed as inhibition of TNFalpha secretion at 1 ug/ml by ELISA. Format: functional.
For assay [3], the system named is U-937. The assay is described as follows: Antiinflammatory activity in PMA-stimulated human U-937 cells assessed as inhibition of IL-1beta secretion at 1 ug/ml by ELISA. Format: functional. (In general: ELISA stands for enzyme-linked immunosorbent assay.)
In assay [4] the test system is Rattus norvegicus. Put plainly: Antiinflammatory activity in rat model of ethyl phenylpropiolate-induced ear edema assessed as 30% reduction in ear thickness administered topically and measured after 30 mins. Conditions: 0.5 h. The format is functional.
Assay [5] has as its system Rattus norvegicus. The assay is described as follows: Antiinflammatory activity in rat model of ethyl phenylpropiolate-induced ear edema assessed as 30% reduction in ear thickness administered topically and measured after 1 hr. The format is functional.
For assay [6], the system named is Rattus norvegicus. Put plainly: Antiinflammatory activity in rat model of carrageenan-induced hind paw edema assessed as reduction in paw thickness at 100 mg/kg,ip 30mins before carrageenin exposure and measured after 3 hrs. Also on record: scale not given: the % may be the effect or the level left. The format is functional.
Assay [7] deals with Hepatocyte. Put plainly: Hepatoprotective activity against CCL4-induced rat hepatocyte toxicity assessed as decrease in ALT level at 1 uM preincubated for 30 mins followed by CCL4 addition and measured after 180 mins by colorimetric method. Format: functional. The arrangement: scale not given: the % may be the effect or the level left. Conditions: time 210 min.
In assay [8] the test system is Hepatocyte. Put plainly: Hepatoprotective activity against CCL4-induced rat hepatocyte toxicity assessed as decrease in TBARS level by measuring MDA formation at 1 uM preincubated for 30 mins followed by CCL4 addition and measured after 180 mins by TBARS method. The arrangement: scale not given: the % may be the effect or the level left. Conditions: time 210 min. The format is functional.

Assay [9] deals with Hepatocyte. Put plainly: Hepatoprotective activity against CCL4-induced rat hepatocyte toxicity assessed as decrease in TNF-alpha level at 1 uM preincubated for 30 mins followed by CCL4 addition and measured after 180 mins by ELISA. Format: functional. The arrangement: scale not given: the % may be the effect or the level left. Conditions: time 210 min.
Assay [10] relates to Hepatocyte. The assay is described as follows: Hepatoprotective activity against CCL4-induced rat hepatocyte toxicity assessed as decrease in IL-1beta level at 1 uM preincubated for 30 mins followed by CCL4 addition and measured after 180 mins by ELISA. The format is functional. The arrangement: scale not given: the % may be the effect or the level left. Conditions: time 210 min.

The test system of assay [11] is RAW264.7. Put plainly: Antiinflammatory activity in mouse RAW264.7 cells assessed as inhibition of LPS-induced NO production by Griess method. Format: functional, cell-based. (Griess reagent forms a coloured azo dye with nitrite.)
Assay [12] has as its system RAW264.7. Put plainly: Antiinflammatory activity in mouse RAW264.7 cells assessed as inhibition of LPS-induced IL-1beta production. The format is functional, cell-based.
Assay [13] concerns RAW264.7. The assay is described as follows: Antiinflammatory activity in mouse RAW264.7 cells assessed as inhibition of LPS-induced TNF-alpha production. Format: functional, cell-based.
For assay [14], the system named is RAW264.7. The assay is described as follows: Antiinflammatory activity in mouse RAW264.7 cells assessed as inhibition of LPS-induced IL-6 production. Format: functional, cell-based.
The subject of assay [15] is RAW264.7. The assay is described as follows: Antiinflammatory activity in mouse RAW264.7 cells assessed as inhibition of LPS-induced NO production incubated for 20 hrs by Griess reagent based microplate reader analysis. Conditions: RAW264.7, 20 h. Format: functional, cell-based.
Assay [16] deals with RAW264.7. Put plainly: Antiinflammatory activity in mouse RAW264.7 cells assessed as inhibition of LPS-induced NO production at 10 ug/ml incubated for 20 hrs by Griess reagent based microplate reader analysis. Format: functional.
In assay [17] the test system is RAW264.7. Put plainly: Antiinflammatory activity in mouse RAW264.7 cells assessed as inhibition of LPS-induced TNFalpha production preincubated for 1 hr followed by LPS stimulation and measured after 18 hrs by immunoassay. Format: functional, cell-based.
Assay [18] relates to RAW264.7. Put plainly: Antiinflammatory activity in mouse RAW264.7 cells assessed as inhibition of LPS-induced NO production incubated for 24 hrs by Griess reagent based analysis. The format is functional, cell-based. As to conditions: RAW264.7, 24 h.
In assay [19] the test system is RAW264.7. Put plainly: Antiinflammatory activity in mouse RAW264.7 cells assessed as inhibition of LPS-induced NF-kappaB expression preincubated for 1 hr followed by LPS stimulation and measured after 18 hrs by qPCR analysis. The format is functional, cell-based.
Assay [20] relates to RAW264.7. The assay is described as follows: Antiinflammatory activity in mouse RAW264.7 cells assessed as inhibition of LPS-induced NO production for 24 hrs by colorimetric analysis. The format is functional, cell-based. As to conditions: RAW264.7, 24 h.
Assay [21] addresses T1, Polyunsaturated fatty acid 5-lipoxygenase (Homo sapiens, UniProt P09917).
T1 sequence (P09917 whole entry): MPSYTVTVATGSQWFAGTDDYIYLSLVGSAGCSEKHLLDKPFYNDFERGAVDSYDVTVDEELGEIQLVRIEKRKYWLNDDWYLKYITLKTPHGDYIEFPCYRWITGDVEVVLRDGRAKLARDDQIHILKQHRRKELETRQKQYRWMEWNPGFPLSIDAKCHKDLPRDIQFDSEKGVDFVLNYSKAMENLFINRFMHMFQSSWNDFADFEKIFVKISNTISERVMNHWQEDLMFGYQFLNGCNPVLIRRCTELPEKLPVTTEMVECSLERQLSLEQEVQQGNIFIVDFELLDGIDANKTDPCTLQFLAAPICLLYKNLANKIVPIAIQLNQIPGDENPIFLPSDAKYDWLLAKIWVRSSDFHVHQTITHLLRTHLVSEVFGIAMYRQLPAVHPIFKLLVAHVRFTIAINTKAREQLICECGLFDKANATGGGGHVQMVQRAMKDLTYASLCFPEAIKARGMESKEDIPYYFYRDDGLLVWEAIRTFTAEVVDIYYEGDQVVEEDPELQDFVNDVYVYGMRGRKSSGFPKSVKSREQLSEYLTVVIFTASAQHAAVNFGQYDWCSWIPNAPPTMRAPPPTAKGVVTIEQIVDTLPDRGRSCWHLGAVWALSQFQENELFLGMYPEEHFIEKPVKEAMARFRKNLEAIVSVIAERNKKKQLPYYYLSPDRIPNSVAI
Put plainly: Inhibition of 5-LOX in human neutrophils assessed as reduction in 5-HETE formation preincubated for 5 mins followed by arachidonic acid and A23187 addition and measured after 5 mins by RP-HPLC analysis. Format: cell-based, Neutrophil.

A further assay concerns Mus musculus. The assay is described as follows: Antiinflammatory activity in ICR mouse model of TPA-induced ear edema assessed as inhibition of ear inflammation at 20 uM,TOP for 30 mins followed by TPA addition and measured after 5 hrs. Format: functional. As to conditions: 5.5 h, time 330 min.
The test system of a further assay is Zingiber officinale. The assay is described as follows: Inhibition of prostaglandin biosynthesis in ginger. Format: functional, organism-based.
A short description of assay [22]: Inhibition of COX in bovine seminal vesicle assessed as reduction in PGE2 production using arachidonic acid as substrate. Format: tissue-based, Bos taurus.

As for `Oc1ccc(CCC(O)CC/C=C/c2ccccc2)cc1O` (stereo not drawn), the inhibition (as a rule, the relative decrease from the control value, in per cent) at 1 µg/mL in the assay with U-937 [1] turned out to be 64%; in the assay on U-937 [2] it was 44%; in the assay on U-937 [3], 30%.

`OC(CC/C=C/c1ccccc1)CCc1ccccc1` (stereo not drawn): the ID30 amounted to 35 µg in the assay on Rattus norvegicus [4] and 28 µg in the assay on Rattus norvegicus [5]. Besides, the Activity in the assay with Rattus norvegicus [6] is recorded as 30%.

In the case of `Oc1ccc(CCC(O)CC/C=C/c2ccccc2)cc1` (stereo not drawn), the inhibition at 1 µg/mL was determined as 58% in the assay with U-937 [1], 19% in the assay with U-937 [2] and 20% in the assay with U-937 [3].

Turning to `COc1cc(CCC(=O)CCCCc2ccc(O)c(O)c2)ccc1O`, the Activity with Hepatocyte [7] stood at 56.3%; in the assay with Hepatocyte [8], 60.4%; in the assay on Hepatocyte [9], 43.8%; in the assay on Hepatocyte [10] it was 58.8%.

As for `COc1cc(C(=O)[C@@H](O)[C@@H]2CCC[C@H](c3ccc(O)c(OC)c3)O2)ccc1O`, the pIC50 – broadly, −log10 of the IC50, conventionally taken in molar units – in the assay on RAW264.7 [11] is 4.41.

For the molecule `COc1cc2cc(c1O)-c1cc(ccc1O)CC[C@H](OS(=O)(=O)O)CCCC2`, the pIC50 was 4.64 in the assay on RAW264.7 [12], 4.70 with RAW264.7 [13] and 4.64 with RAW264.7 [14].

`COc1cc(CCC(=O)CC(O)CCc2ccc(O)c(OC)c2)ccc1O` (stereo not drawn) [HEXAHYDROCURCUMIN]: the negative logarithm of the IC50 (pIC50) in the assay on RAW264.7 [15] is less than 4.52. The inhibition at 10 µg/mL with RAW264.7 [16] was determined as 32%.

Consider `COc1c2ccc(c1O)CCCCC(=O)CCc1ccc(O)c(c1)O2`, for which the values for the pIC50 with RAW264.7 [17], with RAW264.7 [18] and with RAW264.7 [19] were 4.64, 4.73 and 5.04, respectively.

Regarding `Oc1ccc(CCC(O)/C=C/C=C/c2ccccc2)cc1` (stereo not drawn), the negative logarithm of the IC50 (pIC50) with RAW264.7 [20] was 6.18.

Consider `COc1cc(C[C@H]2O[C@@H](CC(=O)c3ccc(O)c(OC)c3)C[C@H]2O)ccc1O`, for which the pIC50 in the assay with RAW264.7 [11] was less than 4.00.

On to `COc1cc(CCC(=O)CCCCc2ccccc2)ccc1O`, for which the negative logarithm of the IC50 (pIC50) in assay [21] is 5.27; with Zingiber officinale, 6.30; in assay [22] it was 4.80. The inhibition in vivo (commonly the percentage by which the read-out fell short of the control) at 20 µM in the assay on Mus musculus turned out to be 43%.

Source of the values: ChEMBL document CHEMBL5233262, “Anti-inflammatory activity of naturally occuring diarylheptanoids - A review” (Bioorg Med Chem, 2021).
